Data: patent US20090004660A1, “METHOD FOR DETECTING NEUROBLASTOMA AND ITS MALIGNANCY AND METHOD FOR SUPPRESSING THE SAME” (priority 2007, published 2009)
“Also recorded” adds a separate entry of the source.

What was measured:
Assay type in all cases: cell-based, human
[1] = test system: PTGDR gene; assay: RT-PCR of PTGDR gene expression in treated neuroblastoma cell lines; conditions: three types of neuroblastoma cell lines, treatment with 5-aza-dCyd
[2] = test system: CpG island of the PTGER2 gene; assay: Methylation status of the PTGER2 CpG island in neuroblastoma cells cultured with a demethylating agent; conditions: neuroblastoma cells cultured in the presence of 5-aza-dC
[3] = test system: PTGER2 gene; assay: RT-PCR of PTGER2 gene expression in treated neuroblastoma cell lines lacking PTGER2 expression
Method: Moreover, in order to investigate whether or not the lowered expression of the PTGER2 gene was due to DNA methylation, neuroblastoma cell lines lacking expression of the PTGER2 gene were used and treated with 1 μM or 5 μM of 5-aza-dCyd, a demethylating reagent, for 5 days and/or 100 ng/ml of TSA, a deacetylation inhibitor, for 12 hours. RNA was extracted from each cell line and the PTGER2 gene expression thereof was examined by RT-PCR (FIG. 1C).

[4] = test system: GOTO and SJ-N-CG cells; assay: WST cell viability assay in neuroblastoma cell lines; conditions: PTGER2 gene-nonexpressing cell lines (GOTO, SJ-N-CG); 0.01 mM, 0.1 mM, 1 mM for 72 hours
Method: Since the PTGER2 protein and G protein are coupled to be associated with increased intracellular cAMP concentration (Narumiya, et al., Physiol Rev, 79, 1193-1226, 1999), the association between intracellular cAMP concentration and proliferation of neuroblastoma was investigated. First, neuroblastoma cell lines lacking expression of the PTGER2 gene (GOTO and SJ-N-CG) and neuroblastoma cell lines expressing the PTGER2 gene (SJ-N-KP and KP-N-SIFA) were cultured in a growth medium with 0 mM, 0.01 mM, 0.1 mM, and 1 mM of 8-Br-cAMP for 72 hours. Then, the viability of these cells was detected by WST assay (FIG. 5).

Nc1ncn([C@H]2C[C@H](O)[C@@H](CO)O2)c(=O)n1 [5-aza-dCyd, 5-azadeoxycytidine]
PTGDR gene expression [1]: restored | demethylation of the CpG island of the PTGER2 gene [2]: successfully demethylated | PTGER2 gene expression ([3]; 1 μM or 5 μM 5-aza-dCyd alone for 5 days): restored | PTGER2 gene expression ([3]; 1 μM or 5 μM 5-aza-dCyd alone for 5 days, listed as 5-aza-dC): successfully restored

CC(/C=C/C(=O)NO)=C\[C@@H](C)C(=O)c1ccc(N(C)C)cc1 [TSA, Trichostatin A]
PTGER2 gene expression ([3]; 100 ng/ml TSA alone for 12 hours): restored; also recorded: increased level

Nc1ncnc2c1nc(Br)n2[C@@H]1O[C@@H]2COP(=O)(O)O[C@H]2[C@H]1O [8-Br-cAMP]
proliferation (cell viability by WST assay) [4]: suppressed
